“Also recorded” adds a separate entry of the source.

The test system of experiment [1] is Focal Adhesion Kinase (FAK). The experiment is described as follows: Phosphorylation of Focal Adhesion Kinase Tyr861 in MDA-MB-468 cells. The format is cell-based, human. The conditions noted are these: 2 hr treatment. The source says:
Effect of Prodrug on the phosphorylation of Focal Adhesion Kinase (FAK) in MDA-MB-468 breast tumor cells. MDA-MB-468 cells express constitutive phosphorylation of Tyr861 of FAK (Laird, A. et al., Src Family Kinase Activity is Required For Signal Tranducer and Activator of Transcription 3 and Focal Adhesion Kinase Phosphorylation and Vascular Endothelial Growth Factor Signaling In Vivo and For Anchorage-Dependent and Independent Growth Of Human Tumor Cells, Mol Cancer Ther, 2, 461-9(2003). a unique substrate of Src upon recruitment via its SH2 domain (Calalb, M. B., et al, S. K. Focal adhesion kinase tyrosine-861 is a major site of phosphorylation by Src. Biochem Biophys Res Commun 1996, 228, 662-8 (1996.) To test for cross reactivity to the Src SH2 domain, MDA-MB-468 cell extracts were probed for phosphorylation of Tyr861 of FAK.

Experiment [2] addresses T1, STAT3 (Homo sapiens, UniProt P40763). As to the kind of experiment: Inhibition of Stat3 tyrosine705 phosphorylation in MDA-MB-468 cells. The format is cell-based. Also on record: host or cells: MDA-MB-468 breast tumor cells. The conditions noted are these: 2 h; for inhibition of Tyr705 phosphorylation of Stat3 (potency in words): prodrug in DMSO. The procedure: Inhibition of Stat3 tyrosine705 phosphorylation in MDA-MB-468 cells. MDA-MB-468 breast tumor cells (0.4×10^6) were plated onto 35 mm culture dishes and were allowed to grow overnight. Prodrugs were prepared as 10 mM stock solutions in DMSO and aliquots were added to the culture media to give the correct final concentrations. After 2 h the cells were washed with ice cold phosphate buffered saline. Washed cells were treated with lysis buffer (50 mM Hepes, pH 7.4, 150 mM NaCl, 1.5 mM MgCl2, 1 mM EGTA, 100 mM NaF, 10 mM sodium pyrophosphate, 10% glycerol, 1% Triton X-100, 1 mM PMSF, 1 mM Na3VO4, 10 μg/mL leupeptin and 10 μg/mL aprotinin). Cell-free detergent extracts were centrifuged at 15,000 rpm in a microcentriguge for 30 min at 4° C. and the protein concentrations of the supernatants determined. Aliquots containing 12 μg of protein were separated on 8% SDS-PAGE and were transferred to PVDF filters. The filters were blocked with 5% bovine serum albumin and were probed with pStat3^Y705 antibody followed by secondary antibody, whose signal was detected with an enhanced chemiluminescence kit (ECL, Amersham, Chicago, Ill.). Filters were stripped with stripping buffer (62.5 mM Tris, pH 6.8, 2% SDS, and 0.1 M 2-mercaptoethanol) at 50° C. for 30 min. Filters were then probed with total Stat3 antibody and visualized with chemiluminescence as above.

In experiment [3] the test system is STAT5. As to the kind of experiment: EGF-stimulated STAT5 phosphorylation in MDA-MB-468 cells. The conditions noted are these: 1.5 hr prodrug, then EGF 100 ng/mL 30 min. The format is cell-based, human. The procedure:
(§1) Effect of prodrug on the phosphorylation of STAT3, STAT5 and Akt in response to Epidermal Growth Factor stimulation. MDA-MB-468 cells were prepared as above. Prodrugs were prepared as 10 mM stock solutions in DMSO and aliquots were added to the culture media to give the correct final concentrations. After 1.5 hr EGF was added at 100 ng/mL. After 30 minutes cells were collected and lysed and proteins were separated by PAGE and transferred to three PVDF filters as above. The first filter was blocked with 5% bovine serum albumin and probed for total and phosphoStat3 as above. The second filter was probed for phosphoSer473Akt and total Akt using appropriate antibodies and similar detection procedures to those used for STAT3. The third filter was probed for phosphoTyr699 Stat5 and total STAT5 using appropriate antibodies and similar detection procedures to those used for STAT3.

The test system of experiment [4] is Akt. The experiment is described as follows: EGF-stimulated Akt Ser473 phosphorylation in MDA-MB-468 cells. The format is cell-based, human. The conditions noted are these: 1.5 hr prodrug, then EGF 100 ng/mL 30 min. As to the method: as §1
The subject of experiment [5] is non-small cell lung cancer cell lines. The experiment is described as follows: Lung tumor cell viability assay, NSCLC cell lines. The format is cell-based. The conditions noted are these: 0.25-5.0 μM in DMSO; 72 h. As to the method:
Lung Tumor Cell Viability Assay: H1819, H1299 and H827 lung tumor cells were seeded in 6-well plates at a density of 6×10^4, 4×10^4 and 5×10^4 cells/well, respectively. Prodrugs were dissolved in DMSO to make a stock concentration of 500 μM. The following day the cells were treated either with DMSO alone or with 0.25 μM, 0.5 μM, 1.0 μM, 2.5 μM and 5.0 μM of the compounds from Example 1, Example 16, and Example 22. Seventy two h after treatment with the drug the cells were subjected to cell viability assay using trypan blue. […] Cells were plated and after 24 hr were treated with the compound of Example 16 in DMSO. After 72 hr, cells were counted. Note that vertical axes are different for each plot.

In experiment [6] the target is T1, STAT3. The experiment is described as follows: EGF-stimulated STAT3 phosphorylation in MDA-MB-468 cells. The format is cell-based. Also on record: host or cells: MDA-MB-468 breast tumor cells. The conditions noted are these: 1.5 hr prodrug, then EGF 100 ng/mL 30 min. As to the method:
as §1

T1 sequence (P40763 whole entry): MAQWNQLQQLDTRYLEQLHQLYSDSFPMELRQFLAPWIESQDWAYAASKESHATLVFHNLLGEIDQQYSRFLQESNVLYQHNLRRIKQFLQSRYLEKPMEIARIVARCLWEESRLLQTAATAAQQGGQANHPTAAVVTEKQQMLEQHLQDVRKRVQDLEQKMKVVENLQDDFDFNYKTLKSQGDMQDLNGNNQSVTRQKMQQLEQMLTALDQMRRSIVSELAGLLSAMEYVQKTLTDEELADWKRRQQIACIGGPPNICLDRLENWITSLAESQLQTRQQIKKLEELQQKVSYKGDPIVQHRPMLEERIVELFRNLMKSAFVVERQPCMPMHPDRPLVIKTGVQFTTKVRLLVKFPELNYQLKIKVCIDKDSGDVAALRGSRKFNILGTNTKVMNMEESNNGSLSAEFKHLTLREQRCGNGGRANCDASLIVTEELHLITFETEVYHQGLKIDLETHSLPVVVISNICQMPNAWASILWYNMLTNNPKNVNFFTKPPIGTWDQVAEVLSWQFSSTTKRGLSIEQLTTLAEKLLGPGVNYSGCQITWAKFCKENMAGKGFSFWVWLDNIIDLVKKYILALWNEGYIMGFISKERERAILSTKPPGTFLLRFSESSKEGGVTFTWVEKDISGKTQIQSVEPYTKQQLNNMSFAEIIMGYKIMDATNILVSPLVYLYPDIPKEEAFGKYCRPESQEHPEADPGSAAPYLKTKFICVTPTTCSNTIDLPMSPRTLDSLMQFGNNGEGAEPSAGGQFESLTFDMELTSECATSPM

`C/C(=C\C(=O)N[C@H]1CCc2cccc3c2N(C1=O)[C@H](C(=O)N[C@H](C)CCC(N)=O)C3)c1ccc(C(F)(F)P(=O)(OCOC(=O)C(C)(C)C)OCOC(=O)C(C)(C)C)cc1` [Example 1, (2E)-3-[4-[[bis[(2,2-dimethyl-1-oxopropoxy)methoxy]phosphinyl]difluoromethyl]phenyl]-but-2-enoyl-Haic-(R)-4-aminopentamide]: in experiment [1], the “phosphorylation of FAK Tyr861” value was “no reduction; also recorded: do not inhibit”. Further, in experiment [2], the “concentration as low as which partial inhibition of STAT3 phosphorylation was seen” value is 10 nM, the “concentration at which complete inhibition of STAT3 phosphorylation occurred” value came to 500 nM and the “inhibition of Tyr705 phosphorylation of Stat3 (potency in words)” value was “very potent inhibitors”. In addition, the “Stat5 phosphorylation after EGF” value in experiment [3] is “no effect”. The “Akt Ser473 phosphorylation after EGF” value in experiment [4] was “no effect”. Further, the “growth / viability of NSCLC cell lines” value in experiment [5] is “inhibition”. Also, the “EGF-induced increase in Stat3 phosphorylation” value in experiment [6] was “effective at inhibiting”.

`CCCC[C@H](NC(=O)/C=C(\C)c1ccc(C(F)(F)P(=O)(OCOC(=O)C(C)(C)C)OCOC(=O)C(C)(C)C)cc1)C(=O)N1C[C@H]2CC2[C@H]1C(=O)N[C@@H](CCC(N)=O)[C@@H](C)OCc1ccccc1` (stereo partly drawn) [Example 16, (2E)-3-[4-[[bis[(2,2-dimethyl-1-oxopropoxy)methoxy]phosphinyl]difluoromethyl]phenyl]-but-2-enoyl-norleucinyl-(2S,3R,4S)-methanoprolinyl-(4S,5R)-4-amino-5-benzyloxyhexamide]: in experiment [1], the “phosphorylation of FAK Tyr861” value is “no reduction; also recorded: do not inhibit”. For the same compound, in experiment [2], the “concentration as low as which partial inhibition of STAT3 phosphorylation was seen” value was 10 nM, the “concentration at which complete inhibition of STAT3 phosphorylation occurred” value is reported as 500 nM and the “inhibition of Tyr705 phosphorylation of Stat3 (potency in words)” value is “very potent inhibitors”. Further, in experiment [3], the “Stat5 phosphorylation after EGF” value is reported as “no effect”. The “Akt Ser473 phosphorylation after EGF” value in experiment [4] was “no effect”. Further, in experiment [5], the “growth / viability of NSCLC cell lines” value is listed as “inhibition of growth”. Further, the “EGF-induced increase in Stat3 phosphorylation” value in experiment [6] is “effective at inhibiting”.

These data come from US8841257B2, “Inhibitors of STAT3 and uses thereof” (Board of Regents, The University of Texas System, priority 2009, dated 2014).
